Laboratory results: patent publication US20240058464A1 (Fortis Therapeutics, Inc., priority 2021, published 2024)

Columns and labels:
CD46 expression [1] = test: CD46 expression by RNA-sequencing in unpaired pre-treatment and post-treatment tumor biopsies; assay type: in vivo, human; conditions: for CD46 expression Post: post-treatment biopsies
CD46 expression [2] = test: CD46 expression by RNA-sequencing in paired tumor biopsies before and after therapy; conditions: for CD46 expression diff (post minus pre) / Percent Change in CD46 expression / CD46 expression, Post-Treatment Biopsy: paired biopsies; for CD46 expression, Post-Treatment Biopsy: RNA-seq log2-transformed counts;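 as to all read-outs here: FFPE human tumor biopsies, exome-capture RNA-seq, reads aligned to GRCh37, counts normalized for GC content, length and depth, summed per gene, log2-transformed, samples paired before versus after therapy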
[3] = Breast Cancer, Post minus Pre, unpaired biopsies, log2-transformed counts
[4] = Breast Cancer, post- vs pre-treatment unpaired biopsies
[5] = Breast Cancer, unpaired, RNA-seq log2-transformed normalized counts

COc1cccc2c1C(=O)c1c(O)c3c(c(O)c1C2=O)C[C@@](O)(C(=O)CO)C[C@@H]3O[C@H]1C[C@H](N)[C@H](O)[C@H](C)O1 [doxorubicin]
CD46 expression diff (CD46 expression [1]; Bladder Cancer, post minus pre, unpaired biopsies): −0.27
CD46 expression Percentage change (CD46 expression [1]; Bladder Cancer, post vs pre, unpaired biopsies): −4.3%
CD46 expression Post (CD46 expression [1]; Bladder Cancer, log2-transformed RNA-seq counts): 5.88
CD46 expression diff (CD46 expression [1]; [3]): −0.02
CD46 expression Percentage change (CD46 expression [1]; [4]): −0.3%
CD46 expression diff (CD46 expression [1]; Sarcoma, Post minus Pre, unpaired biopsies, log2-transformed counts): 0.07
CD46 expression Percentage change (CD46 expression [1]; Sarcoma, post- vs pre-treatment unpaired biopsies): 1.3%
CD46 expression Post (CD46 expression [1]; Sarcoma, unpaired, RNA-seq log2-transformed normalized counts): 5.06
CD46 expression diff (post minus pre) (CD46 expression [2]; Breast Cancer): 0.12
Percent Change in CD46 expression (CD46 expression [2]; Breast Cancer): 1.9%
CD46 expression, Post-Treatment Biopsy (CD46 expression [2]; Breast Cancer): 6.27
CD46 expression diff (post minus pre) (CD46 expression [2]; Sarcoma): 0.20
Percent Change in CD46 expression (CD46 expression [2]; Sarcoma): 4.1%
CD46 expression, Post-Treatment Biopsy (CD46 expression [2]; Sarcoma): 5.19

CNC(=O)c1ccc(N2C(=S)N(c3ccc(C#N)c(C(F)(F)F)c3)C(=O)C2(C)C)cc1F [enzalutamide]
CD46 expression diff (CD46 expression [1]; Prostate Cancer, Post minus Pre, unpaired biopsies, log2-transformed counts): 0.03
CD46 expression Percentage change (CD46 expression [1]; Prostate Cancer, post- vs pre-treatment unpaired biopsies): 0.4%
CD46 expression Post (CD46 expression [1]; Prostate Cancer, unpaired, RNA-seq log2-transformed normalized counts): 6.14
CD46 expression diff (post minus pre) (CD46 expression [2]; Prostate Cancer): 0.06
Percent Change in CD46 expression (CD46 expression [2]; Prostate Cancer): 1.1%
CD46 expression, Post-Treatment Biopsy (CD46 expression [2]; Prostate Cancer): 6.01

C=C1C[C@@H]2CC[C@@]34C[C@H]5O[C@H]6[C@@H](O3)[C@H]3O[C@H](CC[C@@H]3O[C@H]6[C@H]5O4)CC(=O)C[C@@H]3[C@@H](OC)[C@@H](C[C@H](O)CN)O[C@H]3C[C@H]3O[C@@H](CC[C@@H]1O2)C[C@@H](C)C3=C [eribulin]
CD46 expression diff (CD46 expression [1]; [3]): 0.11
CD46 expression Percentage change (CD46 expression [1]; [4]): 1.8%
CD46 expression Post (CD46 expression [1]; [5]): 6.20
CD46 expression diff (post minus pre) (CD46 expression [2]; Breast Cancer): −0.54
Percent Change in CD46 expression (CD46 expression [2]; Breast Cancer): −8.4%
CD46 expression, Post-Treatment Biopsy (CD46 expression [2]; Breast Cancer): 5.92

O=c1[nH]cc(F)c(=O)[nH]1 [fluorouracil]
CD46 expression diff (CD46 expression [1]; Biliary Cancer, Post minus Pre, unpaired biopsies, log2-transformed counts): 0.00
CD46 expression Percentage change (CD46 expression [1]; Biliary Cancer, post- vs pre-treatment unpaired biopsies): 0.0%
CD46 expression Post (CD46 expression [1]; Biliary Cancer, unpaired, RNA-seq log2-transformed normalized counts): 5.92
CD46 expression diff (CD46 expression [1]; [3]): 0.06
CD46 expression Percentage change (CD46 expression [1]; [4]): 1.0%
CD46 expression Post (CD46 expression [1]; [5]): 6.18
CD46 expression diff (CD46 expression [1]; Colorectal Cancer, Post minus Pre, unpaired biopsies, log2-transformed counts): 0.06
CD46 expression Percentage change (CD46 expression [1]; Colorectal Cancer, post- vs pre-treatment unpaired biopsies): 0.9%
CD46 expression Post (CD46 expression [1]; Colorectal Cancer, unpaired, RNA-seq log2-transformed normalized counts): 6.44
CD46 expression diff (CD46 expression [1]; Esophageal Cancer, Post minus Pre, unpaired biopsies, log2-transformed counts): −0.06
CD46 expression Percentage change (CD46 expression [1]; Esophageal Cancer, post- vs pre-treatment unpaired biopsies): −1.0%
CD46 expression Post (CD46 expression [1]; Esophageal Cancer, unpaired, RNA-seq log2-transformed normalized counts): 5.83
CD46 expression diff (CD46 expression [1]; Gastric Cancer, post minus pre, unpaired biopsies): −0.14
CD46 expression Percentage change (CD46 expression [1]; Gastric Cancer, post vs pre, unpaired biopsies): −2.4%
CD46 expression Post (CD46 expression [1]; Gastric Cancer, log2-transformed RNA-seq counts): 5.65
CD46 expression diff (CD46 expression [1]; Head and Neck Squamous Cell Carcinoma, Post minus Pre, unpaired biopsies, log2-transformed counts): 0.03
CD46 expression Percentage change (CD46 expression [1]; Head and Neck Squamous Cell Carcinoma, post- vs pre-treatment unpaired biopsies): 0.6%
CD46 expression Post (CD46 expression [1]; Head and Neck Squamous Cell Carcinoma, unpaired, RNA-seq log2-transformed normalized counts): 5.63
CD46 expression diff (CD46 expression [1]; Pancreatic Cancer, post minus pre, unpaired biopsies): −0.15
CD46 expression Percentage change (CD46 expression [1]; Pancreatic Cancer, post vs pre, unpaired biopsies): −2.5%
CD46 expression Post (CD46 expression [1]; Pancreatic Cancer, log2-transformed RNA-seq counts): 5.76
CD46 expression diff (post minus pre) (CD46 expression [2]; Colorectal Cancer): −0.05
Percent Change in CD46 expression (CD46 expression [2]; Colorectal Cancer): −0.8%
CD46 expression, Post-Treatment Biopsy (CD46 expression [2]; Colorectal Cancer): 6.27
CD46 expression diff (post minus pre) (CD46 expression [2]; Esophageal Cancer): −0.31
Percent Change in CD46 expression (CD46 expression [2]; Esophageal Cancer): −5.2%
CD46 expression, Post-Treatment Biopsy (CD46 expression [2]; Esophageal Cancer): 5.60
CD46 expression diff (post minus pre) (CD46 expression [2]; Gastric Cancer): −0.09
Percent Change in CD46 expression (CD46 expression [2]; Gastric Cancer): −1.5%
CD46 expression, Post-Treatment Biopsy (CD46 expression [2]; Gastric Cancer): 5.66
CD46 expression diff (post minus pre) (CD46 expression [2]; Pancreatic Cancer): 0.09
Percent Change in CD46 expression (CD46 expression [2]; Pancreatic Cancer): 1.5%
CD46 expression, Post-Treatment Biopsy (CD46 expression [2]; Pancreatic Cancer): 5.92
subjects whose paired biopsies showed decreased CD46 expression (CD46 expression [2]; esophageal cancer, 10 of 13 subjects, FIG. 4): 77%

C[C@]12CC[C@@H]3c4ccc(O)cc4C[C@@H](CCCCCCCCC[S+]([O-])CCCC(F)(F)C(F)(F)F)[C@H]3[C@@H]1CC[C@@H]2O (stereo partly drawn) [fulvestrant]
CD46 expression diff (CD46 expression [1]; [3]): −0.08
CD46 expression Percentage change (CD46 expression [1]; [4]): −1.2%
CD46 expression Post (CD46 expression [1]; [5]): 6.41
CD46 expression diff (post minus pre) (CD46 expression [2]; Breast Cancer): −0.13
Percent Change in CD46 expression (CD46 expression [2]; Breast Cancer): −2.1%
CD46 expression, Post-Treatment Biopsy (CD46 expression [2]; Breast Cancer): 6.44
